# Measurements from publication PMC6156508, “GA-Hecate antiviral properties on HCV whole cycle represent a new antiviral class and open the door for the development of broad spectrum antivirals” (Scientific Reports, 2018).
# Where a SMILES comes first, the peptide text is derived from it. The star is where a group is joined. Galloyl = O=C(c1cc(O)c(O)c(O)c1)*
# Columns and labels:
# [1] = tested on: HCVcc FL-J6/JFH-50C19Rluc2AUbi (genotype 2a); test: HCVcc replication (full-length replicon, Renilla luciferase / protein); type: cell-based, hepatitis C virus; settings: 20 μM; 48 h; viral RNA (luciferase) and protein levels
# Source text: Figure 4 GA-Hecate effect on HCVcc replication. (A) HCV RNA expression measured by the Renilla luciferase reporter gene. (B) HCV non-structural (NS5A) protein expression. GAPDH was used as an endogenous control. Water was used as a negative control of virus replication inhibition (Control (−)), and cyclosporine A was used as a positive control of virus replication inhibition (Control (+)). Bars represent triplicate samples of three independent assays. RLU - Relative light units. ***P < 0.001 vs Control (−); F = 273.2, df (between columns) = 5.
# Cell lines harboring subgenomic or genomic replicons were seeded at 5 × 10^3 cells /well on 96-well plates and the compounds were added 24 h post-seeding, in a concentration range between 2.5–20 μM. […] Luciferase activity was measured using a luminometer (FLUOstar Omega/BMG LABTECH, Offenburg, BW, DE). […]
# HCV (FL J6/JFH) infected cells were used to evaluate virus protein expression after peptide treatment. […] Total protein was quantified using a BCA assay (Thermo-Scientific) following the manufacturer’s instructions. […] Finally, the membrane was incubated for 1 minute with Pierce ECL Western Blotting Substrate (Thermo-Scientific-Pierce, Rockford, IL, USA), and the luminescence intensity was captured on a Chemi-Doc System (Bio-Rad, Amadora, PT). […]
# HCV JFH1 3' UTR dsRNA = test: dsRNA intercalation assay (agarose gel); type: binding, hepatitis C virus; settings: peptide 20 μM; 45 min; 1% agarose gel
# Source text: scans, with a resolution of 0.2 nm. To investigate the conformational changes by the membrane environments, the data were obtained in vesicles containing POPC:POPS (9:1), and POPC:Cholesterol (9:1). CD spectra were typically recorded as an average of the eight scans that were obtained in millidegrees and converted to molar ellipticity [θ] in deg·cm2·dmol-1. The peptide concentration was 10 μmol·L-1, and the proportion of lipid/peptide was 100 (L/P = 100).
# Effect of peptides on dsRNA intercalation assay
# To assess GA-Hecate’s dsRNA intercalation capacity, we performed an assay adapted from Krawczyk et al. 2009. Initially, a PCR reaction was made and the HCV JFH1 3’ untranslated region (UTR) (accession no. AB047639) was amplified by specific primers flanked by a T7 promoter sequence (F
# 273 bp, was purified using a ZymocleanTM Gel DNA recovery Kit (Zymo Research) and used as a template for in vitro dsRNA production using a T7 Ribomax Express kit (Promega). […] GA-Hecate, Hecate and Lys-Hecate (20 μM) were incubated with […] of dsRNA, for 45 min, and subsequently analysed in 1% agarose gel 1X TAE stained with ethidium bromide. […]
# In order to guarantee that the virus inhibition effect was not related exclusively to cell death trigger, all concentrations were evaluated to necrosis and apoptosis induction. […]
compound,measurement,setting,value
CC(C)C[C@H](NC(=O)[C@H](C)NC(=O)[C@H](CCCCN)NC(=O)[C@H](CCCCN)NC(=O)[C@H](CC(C)C)NC(=O)[C@H](C)NC(=O)[C@H](CCCCN)NC(=O)[C@H](CCCCN)NC(=O)[C@H](CC(C)C)NC(=O)[C@H](CCCCN)NC(=O)[C@H](CCCCN)NC(=O)[C@H](CC(C)C)NC(=O)[C@H](C)NC(=O)[C@H](CCCCN)NC(=O)[C@H](CCCCN)NC(=O)[C@H](CC(C)C)NC(=O)[C@H](C)NC(=O)[C@H](CCCCN)NC(=O)[C@H](CC(C)C)NC(=O)[C@H](C)NC(=O)[C@H](CC(C)C)NC(=O)[C@H](C)NC(=O)[C@H](Cc1ccccc1)NC(=O)c1cc(O)c(O)c(O)c1)C(N)=O [GA-Hecate] (Galloyl-FALALKALKKALKKLKKALKKAL-NH2),inhibition of HCVcc replication,[1],approximately 85%
same,intercalation in HCV dsRNA,HCV JFH1 3' UTR dsRNA,able to intercalate in HCV dsRNA
